In assay [1] the test system is compound 48/80-induced lethality. Put plainly: Protection of rats from compound 48/80-induced lethality. The note with it: Rattus norvegicus, 4 h, read-out: Compound 48/80 lethality test in rats ED50, s.c. or p.o. 1 h before compound 48/80 0.5 mg/kg i.v.; protection of 50% of animals, survival after 4 hours. It counts as in vivo, rats of an inbred Wistar strain. The method in brief: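 Male inbred Wistar rats (240-260 g), starved overnight, dosed subcutaneously or orally with compound or 0.9% NaCl before compound 48/80 challenge. Survival at 4 hours counted as protection. ED50 in mg/kg is the dose protecting 50% of animals from lethality.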

The next assay has as its system effects of serotonin. Put plainly: Antagonistic activity on the effects of serotonin in the gastric lesion test (lesions induced by compound 48/80). Particulars: Rattus norvegicus, po, read-out: gastric lesion test ED50. In kind it is in vivo, rats of a Wistar inbred strain. The method, then:
Antagonistic activity on the effects of serotonin in the gastric lesion test.
The shock, followed by dead, can be avoided if the rats are pretreated with a classical H 1 antagonist.
Male rats of a Wistar inbred strain, weighing 220-250 g, were starved overnight, water being available ad libitum. The test compounds were administered orally as a solution or as a suspension in aqueous medium. A control rat and a "blank" rat received the test compound. One hour later 5-[4-(diphenylmethyl)1-piperazinylmethyl]-1-methyl-1H-benzimidazole-2-methanol was administered subcutaneously to all rats at the dose of 2.5 mg/kg. […] Four hours after the intravenous injection of compound 48/80, the rats were decapitated and the stomachs were removed. Subsequently the stomachs were inspected for distension and contents (blood, fluid, food) and thoroughly rinsed. The macroscopic lesions were scored from 0 to +++, 0 corresponding to complete absence of visible lesions and the highest score corresponding to reddish rough patches covering more than half the glandular area.
The second column of tables 1-4 show for a number of compounds of formula (I) the doses (in mg/kg body weight) at which the distension of the stomach as well as the lesions in the glandular area of the stomach are completely absent in 50% of the test rats (ED50 -value).

[2] abbreviates: compound 48/80 1 mg/kg i.v., distension and lesions of stomach completely absent in 50% of rats.

The structures appear in SMILES notation. Read-outs that look alike come from different tables or passages of the source.

For the compound `Cc1nc2scc(C)n2c(=O)c1CCN1CCC(Cc2nc3cccnc3n2Cc2ccco2)CC1` [Compound 151, 6-[2-[4-[[3-(2-furanylmethyl)-3H-imidazo[4,5-b]pyridin-2-yl]methyl]-1-piperidinyl]ethyl]-3,7-dimethyl-5H-thiazolo[3,2-a]pyrimidin-5-one], the ED50 in assay [1] stood at 0.02 mg/kg; in the assay on effects of serotonin (setting [2]) it was 0.16 mg/kg.

With `Cc1nc2ccccn2c(=O)c1CCN1CCC(Cc2nc3cccnc3n2Cc2ccc(F)cc2)CC1` [Compound 177], the figures for the ED50 (in assay [1]; in the assay with effects of serotonin (setting [2])) were 0.04 mg/kg and 0.31 mg/kg, respectively.

For the compound `Fc1ccc(Cn2c(CC3CCN(CCNc4cc(Cl)ncn4)CC3)nc3ccccc32)cc1` [Compound 384], the ED50 was 0.08 mg/kg in assay [1] and 0.63 mg/kg in the assay on effects of serotonin (setting [2]).

In the case of `Cc1nc2n(c(=O)c1CCN1CCC(Oc3nc4ccccc4n3Cc3ccc(F)cc3)CC1)CCCC2` [Compound 264], the ED50 turned out to be 0.04 mg/kg in assay [1] and 0.63 mg/kg with effects of serotonin (setting [2]).

With `CCOC(=O)c1csc(NCCN2CCC(Cc3nc4ccccc4n3Cc3ccc(F)cc3)CC2)n1` [Compound 455, ethyl 2-[(2-[4-[(1-[(4-fluorophenyl)methyl]-1H-benzimidazol-2-yl]methyl]-1-piperidinyl]ethyl]amino]-4-thiazolecarboxylate], the figures for the ED50 (in assay [1]; with effects of serotonin (setting [2])) were 0.04 mg/kg and 0.63 mg/kg, respectively.

Turning to `Cc1nc2n(c(=O)c1CCN1CCC(Cc3nc4ccccc4n3Cc3ccc(F)cc3)CC1)CCCC2` [Compound 498, 3-[2-[4-[[1-[(4-fluorophenyl)methyl]-1H-benzimidazol-2-yl]methyl]-1-piperidinyl]ethyl]-6,7,8,9-tetrahydro-2-methyl-4H-pyrido[1,2-a]pyrimidin-4-one], the ED50 was found to be 0.08 mg/kg in assay [1] and 0.16 mg/kg with effects of serotonin (setting [2]).

For `COc1ccc(CCN2CCC(Cc3nc4cccnc4n3Cc3ccccc3)CC2)cc1` [Compound 198], the ED50 in assay [1] is 0.04 mg/kg; in the assay on effects of serotonin, 0.08 mg/kg.

On to `Cc1nc2c(NCCN3CCC(Cc4nc5ccccc5n4Cc4ccc(F)cc4)CC3)ncnc2n1C` [Compound 372], for which the ED50 worked out at 0.04 mg/kg in assay [1] and 0.16 mg/kg with effects of serotonin (setting [2]).

In the case of `Fc1ccc(Cn2c(CC3CCN(CCNc4nc5ccccc5s4)CC3)nc3ccccc32)cc1` [Compound 367], the ED50 (in assay [1]; in the assay with effects of serotonin (setting [2])) was 0.16 mg/kg throughout.

For the compound `S=C=NCCN1CCC(Cc2nc3ccccc3n2Cc2cccs2)CC1` [Compound 397], the ED50 (in assay [1]; with effects of serotonin) was 0.04 mg/kg throughout.

`Fc1ccc(Cn2c(CC3CCN(CCNc4ncc[nH]4)CC3)nc3ccccc32)cc1` [Compound 453, 4-[[1-[(4-fluorophenyl)methyl]-1H-benzimidazol-2-yl]methyl]-N-(1H-imidazol-2-yl)-1-piperidineethanamine]: the ED50 in assay [1] amounted to 0.04 mg/kg; with effects of serotonin (setting [2]) it was 0.02 mg/kg.

Take `O=c1cc[nH]c(=O)n1CCN1CCC(Cc2nc3ccccc3n2Cc2ccc(F)cc2)CC1` [Compound 164]: the ED50 (in assay [1]; with effects of serotonin (setting [2])) was 0.02 mg/kg throughout.

As for `O=C1OCCN1CCN1CCC(Cc2nc3ccccc3n2Cc2ccc(F)cc2)CC1` [Compound 385, 3-[2-[4-[[1-[(4-fluorophenyl)methyl]-1H-benzimidazol-2-yl]methyl]-1-piperidinyl]ethyl]2-oxazolidinone], the results for the ED50 (in assay [1]; in the assay with effects of serotonin) were 0.01 mg/kg and 0.08 mg/kg, respectively.

As for `CCNC(=O)NCCN1CCC(Cc2nc3ccccc3n2Cc2ccc(F)cc2)CC1` [Compound 430, N-ethyl-N'-[2-[4-[[1-[(4-fluorophenyl)methyl]-1H-benzimidazol-2-yl]methyl]-1-piperidinyl]ethyl]urea], the figures for the ED50 (in assay [1]; with effects of serotonin (setting [2])) were 0.01 mg/kg and 0.005 mg/kg, respectively.

`COc1ccc(CCN2CCC(Cc3nc4ccccc4n3Cc3ccsc3)CC2)cc1` [Compound 523, 2-[[1-[2-(4-methoxyphenyl)ethyl]-4-piperidinyl]methyl]-1-(3-thienylmethyl)-1H-benzimidazole]: the ED50 in assay [1] was 0.04 mg/kg; in the assay with effects of serotonin (setting [2]), 0.31 mg/kg.

Regarding `Fc1ccc(Cn2c(CC3CCN(CCNc4ncccn4)CC3)nc3ccccc32)cc1` [Compound 374], the ED50 (in assay [1]; in the assay on effects of serotonin (setting [2])) was 0.02 mg/kg in each case.

As for `Fc1ccc(Cn2c(CC3CCN(CCNc4nc5cnccc5s4)CC3)nc3ccccc32)cc1` [Compound 332, N-[2-[4-[[1-[(4-fluorophenyl)methyl]-1H-benzimidazol-2-yl]methyl]-1-piperidinyl]ethyl]thiazolo[4,5-c]pyridin-2-amine], the ED50 (in assay [1]; with effects of serotonin) was 0.08 mg/kg in each case.

Turning to `Cc1nc2n(c(=O)c1CCN1CCC(Cc3nc4cccnc4n3Cc3ccco3)CC1)CCS2` [Compound 168], the ED50 came out at 0.04 mg/kg in assay [1] and 0.63 mg/kg in the assay with effects of serotonin (setting [2]).

For `CN1CCC(Cc2nc3cccnc3n2Cc2ccc(F)cc2)CC1` [Compound 90], the ED50 amounted to 0.01 mg/kg in assay [1] and 0.31 mg/kg in the assay on effects of serotonin (setting [2]).

As to `Nc1ccccc1C(=O)NCCN1CCC(Cc2nc3ccncc3n2Cc2ccc(F)cc2)CC1` [Compound 477, 2-amino-N-[2-[4-[[3-[(4-fluorophenyl)methyl]-3H-imidazo[4,5-c]pyridin-2-yl]-methyl]-1-piperidinyl]-ethyl]benzamide], the ED50 in assay [1] came out at 0.02 mg/kg; in the assay on effects of serotonin (setting [2]), 0.63 mg/kg.

Regarding `Fc1ccc(Cn2c(CC3CCN(CCNc4nc5cccnc5s4)CC3)nc3ccccc32)cc1` [Compound 330, N-[2-[4-[[1-[(4-fluorophenyl)methyl]-1H-benzimidazol-2-yl]methyl]-1-piperidinyl]ethyl]thiazolo[5,4-b]pyridin-2-amine], the ED50 in assay [1] worked out at 0.08 mg/kg; in the assay on effects of serotonin (setting [2]) it was 0.16 mg/kg.

As for `O=c1[nH]c2ccccc2n1CCCN1CCC(Cc2nc3ccccc3n2Cc2ccc(F)cc2)CC1` [Compound 207], the ED50 (in assay [1]; with effects of serotonin) was 0.08 mg/kg in each case.

With `c1csc(Cn2c(CC3CCN(CCNc4nccs4)CC3)nc3ccccc32)c1` [Compound 356], the results for the ED50 (in assay [1]; in the assay with effects of serotonin) were 0.02 mg/kg and 0.08 mg/kg, respectively.

For `Cc1nc2ccccn2c(=O)c1CCN1CCC(Cc2nc3ncccc3n2Cc2ccc(F)cc2)CC1` [Compound 272], the results for the ED50 (in assay [1]; with effects of serotonin (setting [2])) were 0.08 mg/kg and 0.63 mg/kg, respectively.

As for `Cc1nc2n(c(=O)c1CCN1CCC(Cc3nc4ccccc4n3Cc3cccs3)CC1)CCCC2` [Compound 263], the ED50 (in assay [1]; in the assay with effects of serotonin) was 0.04 mg/kg in each case.

On to `COc1ccc(CCN2CCC(Cc3nc4ccc(OC)cc4n3Cc3ccc(F)cc3)CC2)cc1` [Compound 273], for which the ED50 worked out at 0.01 mg/kg in assay [1] and 0.31 mg/kg in the assay on effects of serotonin (setting [2]).

Consider `COc1ccc(CCN2CCC(Cc3nc4cccnc4n3Cc3ccco3)CC2)cc1` [Compound 189], for which the values for the ED50 (in assay [1]; with effects of serotonin (setting [2])) were 0.02 mg/kg and 0.63 mg/kg, respectively.

Take `O=C(NCCN1CCC(Cc2nc3cccnc3n2Cc2ccc(F)cc2)CC1)c1ccoc1` [Compound 432]: the ED50 in assay [1] is 0.04 mg/kg; in the assay on effects of serotonin (setting [2]), 0.31 mg/kg.

Regarding `O=C(c1ccccc1)N(CCN1CCC(Cc2nc3ccccc3n2Cc2ccc(F)cc2)CC1)c1ncccn1` [Compound 508, N-[2-[4-[[1-[(4-fluorophenyl)methyl]-1H-benzimidazol-2-yl]methyl]-1-piperidinyl]ethyl]-N-(2-pyrimidinyl)benzamide], the ED50 worked out at 0.08 mg/kg in assay [1] and 0.16 mg/kg in the assay on effects of serotonin (setting [2]).

Take `Fc1ccc(Cn2c(CC3CCN(CCN4CCOCC4)CC3)nc3cccnc32)cc1` [Compound 124]: the results for the ED50 (in assay [1]; in the assay with effects of serotonin (setting [2])) were 0.04 mg/kg and 0.31 mg/kg, respectively.

In the case of `CC(C)NC(=O)CCN1CCC(Cc2nc3ccccc3n2Cc2ccc(F)cc2)CC1` [Compound 145, 4-[[1-[(4-fluorophenyl)methyl]-1H-benzimidazol-2-yl]methyl]-N-(1-methylethyl)-1-piperidinepropanamide], the ED50 in assay [1] stood at 0.02 mg/kg; with effects of serotonin (setting [2]), 0.16 mg/kg.

For the compound `O=c1[nH]c2ccccc2c(=O)n1CCCCN1CCC(Cc2nc3ccccc3n2Cc2ccc(F)cc2)CC1` [Compound 489, 3-[4-[4-[[1-[(4-fluorophenyl)methyl]-1H-benzimidazol-2-yl]methyl]-1-piperidinyl]butyl]-2,4(1H,3H)-quinazolinedione], the ED50 in assay [1] was 0.08 mg/kg; with effects of serotonin (setting [2]), 0.63 mg/kg.

For the compound `Cn1cccc1C(=O)NCCN1CCC(Cc2nc3ccccc3n2Cc2ccc(F)cc2)CC1` [Compound 433, N-[2-[4-[[1-[(4-fluorophenyl)methyl]-1H-benzimidazol-2-yl]methyl]-1-piperidinyl]ethyl]-1-methyl-1H-pyrrole-2-carboxamide], the ED50 in assay [1] stood at 0.01 mg/kg; with effects of serotonin (setting [2]), 0.16 mg/kg.

For the compound `COc1ncccc1C(=O)NCCN1CCC(Cc2nc3ccccc3n2Cc2ccc(F)cc2)CC1` [Compound 438, N-[2-[4-[[1-[(4-fluorophenyl)methyl]-1H-benzimidazol-2-yl]methyl]-1-piperidinyl]ethyl]-2-methoxy-3-pyridinecarboxamide], the ED50 was 0.08 mg/kg in assay [1] and 0.16 mg/kg with effects of serotonin (setting [2]).

Consider `Fc1ccc(Cn2c(CC3CCN(CCNc4ncccn4)CC3)nc3ncccc32)cc1` [Compound 348, N-[2-[4[[1-[(4-fluorophenyl)methyl]-1H-imidazo[4,5-b]pyridin-2-yl]methyl]-1-piperidinyl]ethyl]-2-pyrimidinamine], for which the ED50 (in assay [1]; with effects of serotonin) was 0.04 mg/kg each time.
